Legend:
[1] = cited from earlier work
[2] = Pre-clinical combination efficacy of MM-111; details: with lapatinib, trastuzumab, paclitaxel or docetaxel
[3] = oral; cited from earlier work

## CC(=O)O[C@@]12CO[C@@H]1C[C@H](O)[C@@]1(C)C(=O)[C@H](O)C3=C(C)[C@@H](OC(=O)[C@H](O)[C@@H](NC(=O)OC(C)(C)C)c4ccccc4)C[C@@](O)([C@@H](OC(=O)c4ccccc4)[C@H]21)C3(C)C [docetaxel, 1,7β,10β-trihydroxy-9-oxo-5β,20-epoxytax-11-ene-2α,4,13α-triyl 4-acetate 2-benzoate 13-{(2R,3S)-3-[(tert-butoxycarbonyl)amino]-2-hydroxy-3-phenylpropanoate}]
[1]
  water solubility: more water soluble than paclitaxel

## MM-111: bispecific anti-ErbB2/anti-ErbB3 antibody, scFv HSA conjugate, SEQ ID NO:1
[2]
  combination effect (efficacy): additive

## CS(=O)(=O)CCNCc1ccc(-c2ccc3ncnc(Nc4ccc(OCc5cccc(F)c5)c(Cl)c4)c3c2)o1 [lapatinib]
[3]
  bioavailability with food consumption: increased

Reference: US20150139936A1, “DOSAGE AND ADMINISTRATION OF BISPECIFIC SCFV CONJUGATES IN COMBINATION WITH ANTI-CANCER THERAPEUTICS” (Merrimack Pharmaceuticals, Inc., priority 2012, published 2015)
